Experimental findings from ChEMBL document CHEMBL4387706, “Discovery of Novel Spiroindoline Derivatives as Selective Tankyrase Inhibitors” (J Med Chem, 2019) are described below.

A short description of data set [1]: Half life in Sprague-Dawley rat at 1 mg/kg, iv. The conditions noted are these: in vivo. Type of data set: ADME, organism-based.
For data set [2], the system named is COLO 320DM. In words: Antiproliferative activity against human COLO320DM cells assessed inhibition of cell growth measured after 5 days by MTT assay. Type of data set: functional. As to conditions: 120 h.
For data set [3], the target named is T1, Protein mono-ADP-ribosyltransferase PARP10 (Homo sapiens, UniProt Q53GL7).
T1 sequence (Q53GL7 whole entry): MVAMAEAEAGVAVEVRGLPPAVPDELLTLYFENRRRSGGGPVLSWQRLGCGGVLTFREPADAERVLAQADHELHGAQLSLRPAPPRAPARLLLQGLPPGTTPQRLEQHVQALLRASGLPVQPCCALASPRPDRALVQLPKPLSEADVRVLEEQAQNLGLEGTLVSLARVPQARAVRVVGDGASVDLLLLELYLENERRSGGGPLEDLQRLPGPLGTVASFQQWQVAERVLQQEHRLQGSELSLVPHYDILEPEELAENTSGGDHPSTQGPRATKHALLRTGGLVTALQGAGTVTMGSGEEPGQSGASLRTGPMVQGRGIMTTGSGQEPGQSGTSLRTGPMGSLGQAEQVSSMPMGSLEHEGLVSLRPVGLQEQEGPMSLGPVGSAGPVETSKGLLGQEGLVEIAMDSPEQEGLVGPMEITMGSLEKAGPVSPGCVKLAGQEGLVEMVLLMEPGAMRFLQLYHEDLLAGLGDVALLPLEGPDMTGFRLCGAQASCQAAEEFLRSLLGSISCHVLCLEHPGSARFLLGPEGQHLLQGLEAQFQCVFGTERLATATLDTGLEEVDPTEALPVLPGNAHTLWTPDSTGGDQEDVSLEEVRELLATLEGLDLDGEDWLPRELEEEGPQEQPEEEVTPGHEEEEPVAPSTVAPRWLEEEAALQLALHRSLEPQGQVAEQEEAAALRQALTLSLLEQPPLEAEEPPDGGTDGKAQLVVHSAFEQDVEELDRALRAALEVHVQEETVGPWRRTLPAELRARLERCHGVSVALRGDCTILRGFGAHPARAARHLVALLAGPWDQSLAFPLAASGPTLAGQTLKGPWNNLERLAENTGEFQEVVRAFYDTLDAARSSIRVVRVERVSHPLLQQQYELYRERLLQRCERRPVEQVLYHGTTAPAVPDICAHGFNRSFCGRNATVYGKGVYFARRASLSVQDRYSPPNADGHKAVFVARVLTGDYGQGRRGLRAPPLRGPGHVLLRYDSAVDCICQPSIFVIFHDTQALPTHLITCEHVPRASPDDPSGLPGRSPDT
Kind of data set: Inhibition of human recombinant N-terminal TEV-cleavgae site-fused-FLAG/Polyhis-tagged PARP10 […] expressed in Escherichia coli assessed as reduction in auto-PARylation using histone as substrate measured after 45 mins in presence of biotinylated-NAD+ by ELISA. For orientation: An ELISA detects its analyte on a solid surface through an enzyme-linked reagent.

A short description of data set [4]: in vitro. As to conditions: human, liver microsomes. On the technique in general: Microsomes from liver hold many membrane-bound enzymes, among them those of drug oxidation.
Description: Stability in human liver microsomes assessed as parent compound remaining at 1 uM measured after 30 mins in presence of NADPH by LC-MS/MS analysis
A short description of data set [5]: AUC (infinity) in Sprague-Dawley rat at 3 mg/kg, po. As to conditions: in vivo. The format is ADME, organism-based. Also on record: dose 3 mg/kg, time infinity, route oral.
Data set [6] has as its target Poly [ADP-ribose] polymerase 2 (Homo sapiens, UniProt Q9UGN5). Kind of data set: Inhibition of human recombinant N-terminal GST-tagged PARP2 (2 to 583 residues) expressed in baculovirus infected Sf9 cells assessed as reduction in auto-PARylation using histone as substrate measured after 45 mins in presence of biotinylated-NAD+ by ELISA.
A short description of data set [7]: in vitro. As to conditions: mouse, liver microsomes.
Description: Stability in mouse liver microsomes assessed as parent compound remaining at 1 uM measured after 30 mins in presence of NADPH by LC-MS/MS analysis
A short description of data set [8]: Tmax in Sprague-Dawley rat at 3 mg/kg, po. The format is ADME, organism-based. The conditions noted are these: in vivo.
The target in data set [9] is Poly [ADP-ribose] polymerase 1 (Homo sapiens, UniProt P09874).
Description: Inhibition of recombinant human PARP1 expressed in Escherichia coli assessed as reduction in auto-PARylation using histone as substrate measured after 45 mins in presence of biotinylated-NAD+ by ELISA
Data set [10] can be described thus: Cmax in Sprague-Dawley rat at 3 mg/kg, po. The format is ADME, organism-based. As to conditions: in vivo. The arrangement: dose 3 mg/kg, route oral.
The nature of data set [11]: Protein binding in mouse serum assessed as unbound fraction at 1 uM measured after 24 hrs by LC-MS/MS analysis. The format is ADME, cell-free.
The test system of data set [12] is COLO 320DM. Kind of data set: cells. The conditions noted are these: Homo sapiens, 96 h.
Description: Antiproliferative activity against human COLO320DM cells assessed as inhibition of cell growth measured after 4 days by CellTiter-Glo assay
Data set [13] in a line: AUC (infinity) in Sprague-Dawley rat at 1 mg/kg, iv. The format is ADME, organism-based. Also on record: dose 1 mg/kg, route intravenous, time infinity. The conditions noted are these: in vivo.
A short description of data set [14]: Volume of distribution at steady state in Sprague-Dawley rat at 1 mg/kg, iv. Type of data set: ADME, organism-based. The conditions noted are these: in vivo, read-out: Vdss.
A short description of data set [15]: Initial plasma concentration in Sprague-Dawley rat at 1 mg/kg, iv. Type of data set: ADME, organism-based.
Data set [16] is described as follows: Total clearance in Sprague-Dawley rat at 1 mg/kg, iv. The format is ADME, organism-based. The conditions noted are these: in vivo.
Data set [17] in a line: Oral bioavailability in Sprague-Dawley rat at 3 mg/kg. The format is ADME, organism-based. The conditions noted are these: in vivo.
Data set [18] is described as follows: Protein binding in human serum assessed as unbound fraction at 1 uM measured after 24 hrs by LC-MS/MS analysis. Type of data set: ADME, cell-free.
In data set [19] the target is Adenosine receptor A2a (Homo sapiens) (UniProt P29274). In words: Displacement of [3H]CGS-21680 from full-length recombinant human A2A receptor expressed in HEK293 cells at 10 uM measured after 90 mins by scintillation counting method relative to control. The format is cell-based. (Loss of bound radioactivity is the signal in a displacement assay; it reports binding, not function.)

Data set [20] addresses Sodium-dependent dopamine transporter (Homo sapiens) (UniProt Q01959). In words: Displacement of [125I]RTI-55 from full-length recombinant human DAT receptor expressed in CHOS cells at 10 uM measured after 3 hrs by scintillation counting method relative to control. Type of data set: cell-based.
Data set [21] is described as follows: AUC (infinity) in ICR mouse at 50 mg/kg, ip. Type of data set: ADME, organism-based. The arrangement: dose 50 mg/kg, route intraperitoneal, time infinity. The conditions noted are these: in vivo.
Another data set is filed under the species Homo sapiens. Kind of data set: Effect on hippo signaling protein in human COLO320DM cells assessed as change in CTGF expression at 0.033 to 1 uM measured after 48 hrs by RT-PCR analysis. Type of data set: cell-based.
Data set [22] deals with Kappa-type opioid receptor (Homo sapiens) (UniProt P41145). Kind of data set: Displacement of [3H]diprenorphine from full-length recombinant human KOR expressed in HEK293 cells at 10 uM measured after 60 mins by scintillation counting method relative to control. Type of data set: cell-based.

The structures appear in SMILES notation. Active and inactive are the calls of the source. No cut-off for these calls is given here.

The half-life is how long it takes for the measured level to halve. Usually GI50 stands for the concentration at which growth is held to half of that of the control. High values mean less potent growth inhibition, low ones more potent growth inhibition. Usually IC50 stands for the concentration that inhibits the measured activity by half. One may read the amount remaining as what is left of the initial amount, in per cent. Read a low amount remaining as more turnover. As usually defined, the AUC(0-inf) is total exposure, with the tail of the curve extrapolated. In general, Tmax refers to the time at which the peak concentration occurs. As usually defined, the Cmax is the highest concentration seen after dosing. Usually fraction unbound stands for free concentration divided by total concentration. Broadly, the clearance is the rate of elimination divided by the concentration. Read a low clearance as inefficient removal. By bioavailability is commonly meant the share of a dose that reaches the circulation, judged against a reference dose that is usually intravenous. Read a high bioavailability as much systemic uptake. Broadly, the inhibition is the share of the control response that was lost under treatment.

Poly [ADP-ribose] polymerase 1, sequence (P09874 whole entry): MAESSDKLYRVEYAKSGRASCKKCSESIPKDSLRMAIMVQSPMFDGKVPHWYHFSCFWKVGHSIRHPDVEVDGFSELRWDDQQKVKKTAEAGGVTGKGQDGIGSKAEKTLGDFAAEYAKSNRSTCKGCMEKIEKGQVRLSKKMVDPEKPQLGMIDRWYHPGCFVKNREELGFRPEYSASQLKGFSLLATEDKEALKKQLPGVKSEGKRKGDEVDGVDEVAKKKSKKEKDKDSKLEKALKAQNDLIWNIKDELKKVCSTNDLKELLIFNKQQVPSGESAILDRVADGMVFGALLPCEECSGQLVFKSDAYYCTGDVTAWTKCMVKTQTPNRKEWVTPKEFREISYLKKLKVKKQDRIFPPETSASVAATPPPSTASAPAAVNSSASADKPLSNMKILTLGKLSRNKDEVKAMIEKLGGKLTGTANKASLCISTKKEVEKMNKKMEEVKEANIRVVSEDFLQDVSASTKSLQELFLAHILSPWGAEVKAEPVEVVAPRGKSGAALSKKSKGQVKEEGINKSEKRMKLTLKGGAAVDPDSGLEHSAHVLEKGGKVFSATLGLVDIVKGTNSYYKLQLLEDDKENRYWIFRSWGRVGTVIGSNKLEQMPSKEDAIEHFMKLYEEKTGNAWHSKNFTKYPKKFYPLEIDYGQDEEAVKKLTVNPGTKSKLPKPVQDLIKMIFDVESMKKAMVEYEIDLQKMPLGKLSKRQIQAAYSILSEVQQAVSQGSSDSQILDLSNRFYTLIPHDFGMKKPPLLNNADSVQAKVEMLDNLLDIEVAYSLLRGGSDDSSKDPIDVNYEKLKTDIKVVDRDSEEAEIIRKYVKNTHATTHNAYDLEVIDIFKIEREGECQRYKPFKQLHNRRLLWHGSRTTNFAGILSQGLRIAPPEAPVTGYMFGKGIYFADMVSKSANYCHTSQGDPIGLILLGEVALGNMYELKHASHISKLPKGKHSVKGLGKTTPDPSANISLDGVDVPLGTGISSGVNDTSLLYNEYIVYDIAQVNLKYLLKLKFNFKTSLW
Poly [ADP-ribose] polymerase 2, sequence (Q9UGN5 whole entry, the tested form may be a part): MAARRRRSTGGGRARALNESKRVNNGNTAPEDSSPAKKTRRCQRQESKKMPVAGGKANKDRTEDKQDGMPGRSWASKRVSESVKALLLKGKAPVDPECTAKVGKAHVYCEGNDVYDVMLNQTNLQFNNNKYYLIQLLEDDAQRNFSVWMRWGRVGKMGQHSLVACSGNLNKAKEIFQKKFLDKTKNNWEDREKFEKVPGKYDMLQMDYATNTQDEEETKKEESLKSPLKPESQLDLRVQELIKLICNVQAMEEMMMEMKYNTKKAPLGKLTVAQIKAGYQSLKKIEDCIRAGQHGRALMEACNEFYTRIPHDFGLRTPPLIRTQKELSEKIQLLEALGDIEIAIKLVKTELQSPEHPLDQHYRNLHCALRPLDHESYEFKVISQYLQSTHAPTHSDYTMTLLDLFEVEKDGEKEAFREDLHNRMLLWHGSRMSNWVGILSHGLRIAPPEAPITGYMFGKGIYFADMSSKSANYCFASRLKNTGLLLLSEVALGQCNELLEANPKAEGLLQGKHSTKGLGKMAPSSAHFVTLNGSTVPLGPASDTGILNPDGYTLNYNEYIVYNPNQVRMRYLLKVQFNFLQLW
Kappa-type opioid receptor (Homo sapiens), sequence (P41145 whole entry): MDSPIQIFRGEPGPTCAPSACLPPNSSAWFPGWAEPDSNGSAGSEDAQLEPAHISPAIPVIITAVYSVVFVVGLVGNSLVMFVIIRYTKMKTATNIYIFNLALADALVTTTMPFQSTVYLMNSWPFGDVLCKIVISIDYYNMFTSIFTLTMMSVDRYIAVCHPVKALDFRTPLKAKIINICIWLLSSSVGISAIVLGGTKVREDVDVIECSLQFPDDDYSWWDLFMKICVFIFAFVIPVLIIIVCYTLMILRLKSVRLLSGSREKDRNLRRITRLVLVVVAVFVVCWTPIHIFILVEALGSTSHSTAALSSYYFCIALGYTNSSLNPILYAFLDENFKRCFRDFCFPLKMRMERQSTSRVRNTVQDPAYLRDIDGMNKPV
Sodium-dependent dopamine transporter (Homo sapiens), sequence (Q01959 whole entry): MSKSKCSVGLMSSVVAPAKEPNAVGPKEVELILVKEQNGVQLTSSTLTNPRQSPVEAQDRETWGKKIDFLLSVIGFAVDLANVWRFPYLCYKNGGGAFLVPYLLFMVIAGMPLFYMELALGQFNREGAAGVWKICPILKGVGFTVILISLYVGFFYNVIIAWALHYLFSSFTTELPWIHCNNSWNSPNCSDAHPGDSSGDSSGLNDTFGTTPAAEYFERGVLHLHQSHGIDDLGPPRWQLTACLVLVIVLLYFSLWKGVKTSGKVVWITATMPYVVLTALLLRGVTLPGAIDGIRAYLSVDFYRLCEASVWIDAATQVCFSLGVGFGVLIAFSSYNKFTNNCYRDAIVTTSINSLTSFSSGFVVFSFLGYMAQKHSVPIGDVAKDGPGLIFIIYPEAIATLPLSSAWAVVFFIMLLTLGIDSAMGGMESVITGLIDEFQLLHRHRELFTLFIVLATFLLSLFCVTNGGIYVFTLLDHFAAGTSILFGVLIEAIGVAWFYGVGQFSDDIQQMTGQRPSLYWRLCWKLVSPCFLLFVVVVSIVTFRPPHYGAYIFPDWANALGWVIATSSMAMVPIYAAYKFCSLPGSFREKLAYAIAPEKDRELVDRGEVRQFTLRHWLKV
Adenosine receptor A2a (Homo sapiens), sequence (P29274 whole entry): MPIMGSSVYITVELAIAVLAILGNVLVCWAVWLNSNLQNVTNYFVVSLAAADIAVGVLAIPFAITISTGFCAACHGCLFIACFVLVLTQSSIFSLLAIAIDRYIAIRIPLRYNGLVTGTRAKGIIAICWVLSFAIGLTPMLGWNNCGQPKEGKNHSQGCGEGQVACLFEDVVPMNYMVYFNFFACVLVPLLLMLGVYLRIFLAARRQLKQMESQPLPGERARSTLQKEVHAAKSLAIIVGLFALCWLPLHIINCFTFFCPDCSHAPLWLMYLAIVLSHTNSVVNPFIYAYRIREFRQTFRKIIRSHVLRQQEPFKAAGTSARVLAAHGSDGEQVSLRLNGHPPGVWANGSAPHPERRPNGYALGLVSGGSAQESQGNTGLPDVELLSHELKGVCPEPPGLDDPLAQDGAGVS

In turn, `COc1ccccc1N1CCN(c2nc3c(c(=O)[nH]2)CCCC3)CC1` gave a half-life in [1] of 13 h. Also, the GI50 in the data set with COLO 320DM [2] came to 1.82 µM; in the data set with COLO 320DM [12], 3.2 µM. The IC50 in [3] was 10.2 µM; in data set [6], 2.23 µM; in data set [9], 20 to 100 µM. The values for the share remaining at 0.5 h, 1 µM in the data set “in vitro [4]” and in the data set “in vitro [7]” were 84.1% and 0%, respectively. The AUC(0-inf) in [5] came to 1.27 µM·h; in data set [13], 0.72 µM·h. In data set [8], the time to peak (Tmax) is 0.5 h. The same compound showed a Cmax in [10] of 120 nM. In addition, the fraction unbound at 24 h, 1 µM stood at 0.029 in data set [11] and 0.043 in [18]. Also, the Vd in [14] came out at 58.9 L/kg. The C0 in [15] came to 1000 nM. In [16], this compound gave a clearance of 68 mL/min/kg. Also, the bioavailability in data set [17] stood at 59.7%.

With `O=c1[nH]c(N2CCC3(CC2)CN(CCO)c2cc(F)cc(F)c23)nc2c1CCCC2`, the inhibition in [19], in [20] and in data set [22] was greater than 20% each time. Further, the half-life in data set [1] was 3.5 h. For the same compound, the 50% inhibitory concentration (IC50) in data set [3] was 19.8 µM; in [6] it was 2.72 µM; in data set [9] it was 20 to 100 µM. Further, the fraction remaining at 0.5 h, 1 µM in the data set “in vitro [4]” amounted to 5.9%; in “in vitro [7]” it was 18.3%. For the same compound, the figures for the AUC(0-inf) in data set [5], in data set [21] and in [13] were 7.92 µM·h, 555 µM·h and 4.42 µM·h, respectively. Also, the outcome in the data set listed under Homo sapiens was inactive. For the same compound, in [8], the Tmax is 0.25 h. In data set [10], this compound gave a maximum concentration (Cmax) of 2280 nM. Also, the fraction unbound at 24 h, 1 µM is 0.015 in data set [11] and 0.004 in data set [18]. Also, in the data set on COLO 320DM [12], the GI50 is 1.6 µM. In addition, in data set [14], the Vd came to 0.59 L/kg. In data set [15], the C0 worked out at 9840 nM. Moreover, the clearance in [16] is 9 mL/min/kg. This compound also had a bioavailability in data set [17] of 59.8%.
